The source of these data is patent publication US20240122179A1, “AUXINIC HERBICIDES AND METHODS OF USE THEREOF” (CORTEVA AGRISCIENCE LLC, priority 2021, published 2024).

For one data set, the system named is Amaranthus rudis (AMATA). In words: Postemergence herbicide evaluation, percent reduction in plant size vs untreated control, 21 days after treatment. Format: in vivo, Amaranthus rudis (tall water hemp). Particulars: Amaranthus tuberculatus, post-emergence, 504 h, AMATA, postemergence, read-out: Control/Injury; for pest or weed control at 140 g/ha: rate 140 g ae/ha; for pest or weed control at 280 g/ha: rate 280 g ae/ha. An outline of the steps: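 Greenhouse-grown tall waterhemp (25-28° C, 16 h light) at the 2-8 leaf stage, treated by track sprayer at 187 L/ha with compound at 140 or 280 g ae/ha in acetone/DMSO-based spray solution with crop oil and surfactant. 3-4 replicates per treatment, randomized complete block; plant size reduction versus untreated control measured 21 days after treatment.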

Data set [1] deals with Ambrosia artemisiifolia (AMBEL). The data set is described as above. Type of data set: in vivo, Ambrosia artemisiifolia (common ragweed). The conditions noted are these: post-emergence, 504 h, AMBEL, postemergence, read-out: Control/Injury; for pest or weed control at 140 g/ha: rate 140 g ae/ha; for pest or weed control at 280 g/ha: rate 280 g ae/ha. A digest of the protocol:
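Greenhouse-grown plants (25–28 °C, 16 h light) were sprayed postemergence at the 2–8 leaf stage with 140 or 280 g ae/ha in acetone/DMSO-based spray solution with crop oil and surfactant, at 187 L/ha by track sprayer. There were 3–4 replicates. Plant size was measured 21 days after treatment versus untreated plants.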

A further data set has as its system Kochia scoparia (KCHSC). The data set is described as above. The conditions noted are these: Bassia scoparia, post-emergence, 504 h, KCHSC, postemergence, read-out: Control/Injury; for pest or weed control at 140 g/ha: rate 140 g ae/ha; for pest or weed control at 280 g/ha: rate 280 g ae/ha. Format: in vivo. A digest of the protocol: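 Greenhouse-grown plants (25-28 °C, 16 h light) at the 2 to 8 leaf stage were track-sprayed postemergence at 140 or 280 g ae/ha in acetone/DMSO-based spray solution with crop oil and surfactant, at 187 L/ha, in 3-4 randomized replicates.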

The test system of data set [2] is Amaranthus palmeri (AMAPA). The description is as above. Type of data set: in vivo, Amaranthus palmeri (Palmer amaranth). The conditions noted are these: post-emergence, 504 h, postemergence, read-out: Control/Injury; for pest or weed control at 140 g/ha: rate 140 g ae/ha; for pest or weed control at 280 g/ha: rate 280 g ae/ha. A digest of the protocol:
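Greenhouse-grown Palmer amaranth (25 to 28° C, 16 h light) sprayed postemergence at the 2 to 8 leaf stage with 140 or 280 g ae/ha in acetone/DMSO-based solution containing crop oil concentrate, 187 L/ha by track sprayer. Three to four replicates; plant size measured 21 days after treatment as percent reduction versus untreated control.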

The subject of data set [3] is Conyza canadensis (L.) (ERICA). The data set is described as above. Type of data set: in vivo, Conyza canadensis (L.) (Horseweed). Particulars: Erigeron canadensis, post-emergence, 504 h, ERICA, postemergence, read-out: Control/Injury; for pest or weed control at 140 g/ha: rate 140 g ae/ha; for pest or weed control at 280 g/ha: rate 280 g ae/ha. A digest of the protocol:
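Horseshoe-weed (horseweed) seedlings at 2 to 8 leaf stage in greenhouse (25-28° C, 16 h light), sprayed postemergence at 140 or 280 g ae/ha in acetone/DMSO-based spray solution, 187 L/ha track-sprayer. Randomized complete block, 3-4 replicates; plant size measured 21 days after treatment as percent reduction vs untreated controls.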

The subject of a further data set is Glycine max. The experiment in a line: whole plant or invertebrate. The conditions noted are these: for plant injury at 140 g/ha / plant injury at 280 g/ha: Glycine max, post-emergence, 504 h, read-out: Control/Injury; for Control/Injury: in vivo. As for the experimental part:
Plants were grown in a soil media composed of 90% by volume Promix BX (Premier Tech Horticulture, Quakertown, PA) and 10% Profile Greens Grade (Profile Products LLC, Buffalo Grove, IL). Promix BX contains approximately 83% Sphagnum Peat Moss, 13% Perlite, 5% vermiculite, and proprietary amounts of limestone, starter fertilizer, and wetting agent. Profile Greens Grade is a sand-sized granule formed from calcining illite and montmorillonite clay. Several seeds of each species were planted in 10 cm square pots and top watered twice daily. Plant material was propagated in a warm greenhouse with temperature ranging from 25 to 28° C. and 50 to 60% relative humidity at the Corteva Global Headquarters (Indianapolis, Indiana, USA). Natural light was supplemented with 1000-watt metal halide overhead lamps with an average illumination of 500 μE m^−2 s^−1 photosynthetic active radiation for 16 consecutive hours each day. Plants were top-watered prior to herbicide application and sub-watered after herbicide application.
Appropriate amounts of test materials were weighed out into glass vials in their technical form to deliver either 140 or 280 g acid equivalent (ae)/ha. The samples were dissolved in 3 ml of Solvent 1. Solvent 1 is 97% acetone and 3% dimethyl sulfoxide and serves as a general-purpose solvent (GPS) for dissolving technical materials. […] The samples were then diluted to their final concentration using 17 ml of solvent 2 for a total of 20 ml of spray solution. Solvent 2 contains 41.58% GPS, 45.53% water, 11.88% isopropyl alcohol, 0.99% crop oil concentrate and 0.02% Trition X-155 surfactant. All percentages are listed on a volume basis. Dicamba diglycolamine was applied as a formulated herbicide, Clarity™ and diluted with solvent 2 to compare all materials in the same spray solution.
Herbicide applications were made to 3 to 4 replicates of each plant species at the 2 to 8 leaf stage, depending on the species. Treatments were applied with a research track-sprayer (Generation III Research Sprayer manufactured by DeVries Manufacturing in Hollandale, MN, USA) calibrated to deliver a spray volume of 187 L/ha. The track-sprayer was fitted with an 8003E nozzle from Spray Systems Company (North Avenue and Schmale Road, P.O. Box 7900, Wheaton, IL 60187), and used a spray pressure of 276 kPa pressure and a speed of 3.1 km/h. The nozzle height was 46 cm above the plant canopy. The experimental design used for the trials was a randomized complete block with 3 or 4 replications per treatment. After application, plants were placed on carts according to the randomization and returned to the greenhouse. Plants were sub-watered after treatment with Indianapolis city water or fertilized three times a week with a commercial fertilizer solution (Jack's Professional 15-5-15 4 Ca 2 Mg fertilizer (manufactured by JR PETERS INC., 6656 Grant Way, Allentown, PA 18106; www.jrpeters.com). Percent visual control assessments were made on a scale of 0 to 100% (where 0 was no control and 100 was complete plant death) at 7, 14, and 21 days after treatment.
In conformity with the methods outlined in Example 49, the effect of representative experimental compounds on the growth of Glycine max was determined at 2 different levels (respectively, 140 and 280 g acid equivalent (ae)/ha) of the experimental actives tested. Plants were treated with one of the compounds, a control plant was not treated. Twenty-one days after treatment, the plants were measured. The data is present as a percent reduction in plant size relative to the untreated control.

Where [4] appears, read: percent reduction vs untreated control, 21 days after treatment.
Where [5] appears, read: percent reduction vs untreated, 21 days after treatment.
[6] abbreviates: R-AMAPA, percent reduction vs untreated control, 21 days after treatment.

SMILES strings stand for the structures. Read-outs that look alike come from different tables or passages of the source.

For the molecule `COc1c(Cl)ccc(Cl)c1C(=O)ONC(=O)c1cccnc1` [Compound A-94], the pest or weed control at 140 g/ha in the data set on Amaranthus rudis (AMATA) was 68%; in data set [1] it was 75%; with Kochia scoparia (KCHSC) (setting [4]) it was 85%; in the data set with Kochia scoparia (KCHSC) (setting [5]), 93%; in data set [2] (AMAPA) it was 83%; in data set [2] (setting [6]), 73%. The pest or weed control at 140 g/ha in data set [3] worked out at 95%; in data set [3] (setting [4]), 62%. Besides, the pest or weed control at 280 g/ha in data set [1] was found to be 83%; in the data set on Kochia scoparia (KCHSC) (setting [4]), 93%; in the data set on Kochia scoparia (KCHSC) (setting [5]), 98%; in data set [2] (AMAPA) it was 99%; in data set [2] (setting [6]), 80%; in data set [3], 99%. Moreover, the pest or weed control at 280 g/ha in data set [3] (setting [4]) is 77%. In the data set on Glycine max, the plant injury at 140 g/ha is 12%. For the same molecule, the plant injury at 280 g/ha in the data set with Glycine max was found to be 3%. Further, the Control/Injury with Glycine max came to 15.
As to `COc1c(Cl)ccc(Cl)c1C(=O)Nc1ccc(Cl)cc1` [Compound A-77], the pest or weed control at 140 g/ha came to 83% in the data set on Amaranthus rudis (AMATA); 67% in data set [1]; 96% in the data set with Kochia scoparia (KCHSC); 82% in data set [2] (setting [6]); 40% in data set [3] (setting [4]). Further, the pest or weed control at 280 g/ha stood at 85% with Amaranthus rudis (AMATA); 77% in data set [1]; 93% in the data set with Kochia scoparia (KCHSC); 78% in data set [2] (setting [6]); 68% in data set [3] (setting [4]). In addition, the plant injury at 140 g/ha with Glycine max was 8%. Further, the plant injury at 280 g/ha with Glycine max is 8%.
As to `COc1c(Cl)ccc(Cl)c1C(=O)O/N=C(\N)CCCCC/C(N)=N/OC(=O)c1c(Cl)ccc(Cl)c1OC` [Compound A-146], the pest or weed control at 140 g/ha turned out to be 70% in the data set with Amaranthus rudis (AMATA); 83% in data set [1]; 89% with Kochia scoparia (KCHSC) (setting [5]); 43% in data set [2] (setting [6]); 73% in data set [3] (setting [5]). In addition, the pest or weed control at 280 g/ha was found to be 63% in the data set on Amaranthus rudis (AMATA); 86% in data set [1]; 96% with Kochia scoparia (KCHSC) (setting [5]); 60% in data set [2] (setting [6]); 63% in data set [3] (setting [5]). Also, in the data set on Glycine max, the Control/Injury is reported as 0.
For `COc1c(Cl)ccc(Cl)c1C(=O)ONC(=O)c1ccccc1` [Compound A-89], the pest or weed control at 140 g/ha in the data set on Amaranthus rudis (AMATA) was 63%; in data set [1], 80%; with Kochia scoparia (KCHSC) (setting [4]), 84%; in data set [2] (setting [6]), 70%; in data set [3] (setting [4]) it was 77%. The pest or weed control at 280 g/ha with Amaranthus rudis (AMATA) came to 78%; in data set [1], 90%; with Kochia scoparia (KCHSC) (setting [4]), 95%; in data set [2] (setting [6]) it was 88%; in data set [3] (setting [4]), 95%. In addition, the plant injury at 140 g/ha with Glycine max was found to be 13%. The plant injury at 280 g/ha with Glycine max is 5%.
For `COc1c(Cl)ccc(Cl)c1C(=O)Nc1ncccn1` [Compound A-62], the pest or weed control at 140 g/ha in the data set with Amaranthus rudis (AMATA) turned out to be 65%; in data set [1], 83%; with Kochia scoparia (KCHSC), 77%; in data set [2] (setting [6]) it was 73%; in data set [3] (setting [4]), 82%. For the same molecule, the pest or weed control at 280 g/ha in the data set with Amaranthus rudis (AMATA) worked out at 76%; in data set [1], 87%; in the data set on Kochia scoparia (KCHSC) it was 90%; in data set [2] (setting [6]), 92%; in data set [3] (setting [4]), 93%. In addition, the Control/Injury in the data set with Glycine max was 3.
Regarding `COc1c(Cl)ccc(Cl)c1C(=O)O/N=C(\N)CCC/C(N)=N/OC(=O)c1c(Cl)ccc(Cl)c1OC` [Compound A-144], the pest or weed control at 140 g/ha turned out to be 71% with Amaranthus rudis (AMATA); 88% in data set [1]; 89% in the data set with Kochia scoparia (KCHSC) (setting [5]); 59% in data set [2] (setting [6]); 83% in data set [3] (setting [5]). The pest or weed control at 280 g/ha in the data set with Amaranthus rudis (AMATA) is 77%; in data set [1] it was 88%; with Kochia scoparia (KCHSC) (setting [5]), 99%; in data set [2] (setting [6]), 71%; in data set [3] (setting [5]), 75%. For the same molecule, the Control/Injury with Glycine max was found to be 0.
